Experimental data: US20250204564A1, “TASTE MODIFYING COMPOSITIONS AND USES THEREOF” (Firmenich Incorporated, priority 2022, published 2025)

Tests used:
Assay type in all cases: in vivo
[1] = system: Bitterness of Acetaminophen; test: Blinded paired taste comparison, bitterness of acetaminophen; details: for C Chosen: panelists choosing comparative sample C as highest bitterness; for Test Sample Chosen: panelists choosing test sample as highest bitterness
Description: (§1) A series of test samples and a comparative sample were prepared. The comparative sample (C) contained acetaminophen in water at a concentration of 90 mM. Four test samples were prepared. Each test sample contained acetaminophen in water at a concentration of 90 mM. In addition, one test sample (S1) also contained TM1 at 100 ppm, another sample (S2) contained TM1 at 50 ppm, another sample (S3) contained TM1 at 25 ppm, and another sample (S4) contained TM1 at 10 ppm. Sample pairs, a test sample and a comparative sample, were presented in a blinded fashion to panelists, they were asked to taste the samples and identify the sample with the highest bitterness.

[2] = system: Bitterness of Guaifenesin; test: Blinded paired taste comparison, bitterness of guaifenesin; details: 39 panelists
Description: (§2) A test sample and a comparative sample were prepared. The comparative sample (C) contained guaifenesin in water at a concentration of 24 mM. The test sample (S1) contained guaifenesin in water at a concentration of 24 mM and TM1 at a concentration of 50 ppm. Sample pairs, a test sample and a comparative sample, were presented in a blinded fashion to panelists, they were asked to taste the samples and identify the sample with the highest bitterness.

[3] = system: Bitterness of Green Tea; test: Blinded paired taste comparison, bitterness of green tea extract; details: 39 panelists; for C Chosen: panelists choosing comparative sample C as highest bitterness; for Test Sample Chosen: panelists choosing test sample as highest bitterness
Description: as §1, with “green tea extract” for “acetaminophen”, “0.30 wt %. Two” for “90 mM. Four”, “0.30 wt %.” for “90 mM.”, “20” for “100”, “ppm, and” for “ppm,”, “40” for “50 ppm, another sample (S3) contained TM1 at 25 ppm, and another sample (S4) contained TM1 at 10”

[4] = system: Bitterness of Ginseng; test: Blinded paired taste comparison, bitterness of ginseng; details: sample S1: TM1 10 ppm + ginseng 0.036 wt % in water vs C, 39 panelists
Description: as §2, with “ginseng” for “guaifenesin”, “0.036 wt %.” for “24 mM.”, “0.036 wt %” for “24 mM”, “10” for “50”

[5] = system: Bitterness of Caffeine; test: Blinded paired taste comparison, bitterness of caffeine; details: sample S1: TM1 10 ppm + caffeine 0.08 wt % in water vs C, 39 panelists
Description: as §2, with “caffeine” for “guaifenesin”, “0.08 wt %.” for “24 mM.”, “0.08 wt %” for “24 mM”, “10” for “50”

[6] = system: Bitterness of Potato Protein; test: Blinded paired taste comparison, bitterness of potato protein; details: sample S1: TM1 10 ppm + potato protein 4 wt % in water vs C, 39 panelists
Description: as §2, with “potato protein” for “guaifenesin”, “4 wt %.” for “24 mM.”, “4 wt %” for “24 mM”, “10” for “50”

[7] = system: Bitterness of Pea Protein; test: Blinded paired taste comparison, bitterness of pea protein; details: sample S1: TM1 10 ppm + pea protein 4 wt % in water vs C, 30 panelists
Description: as §2, with “pea protein” for “guaifenesin”, “4 wt %.” for “24 mM.”, “4 wt %” for “24 mM”, “10” for “50”

[8] = system: Bitterness of Saccharin; test: Blinded paired taste comparison, bitterness of saccharin; details: sample S1: TM1 10 ppm + saccharin 1000 ppm in water vs C, 33 panelists
Description: as §2, with “saccharin” for “guaifenesin”, “1000 ppm.” for “24 mM.”, “1000 ppm” for “24 mM”, “10” for “50”

[9] = system: Bitterness of Grapefruit Juice; test: Blinded paired taste comparison, bitterness of grapefruit juice; details: 39 panelists
Description: as §2, with “consisted” for “contained guaifenesin in water at a concentration”, “grapefruit juice.” for “24 mM.”, “grapefruit juice” for “24 mM”, “10” for “50”

[10] = system: Bitterness of Coffee; test: Blinded paired taste comparison, bitterness of instant coffee; details: sample S1: TM1 10 ppm in instant coffee (Taster's Choice French Roast) vs C, 33 panelists
Description: A test sample and a comparative sample were prepared. The comparative sample (C) instant coffee (Taster's Choice French Roast, acquired in the United States) made according to the directions. The test sample (S1) consisted of instant coffee (Taster's Choice French Roast, acquired in the United States) made according to the directions and TM1 at a concentration of 10 ppm. Sample pairs, a test sample and a comparative sample, were presented in a blinded fashion to panelists, they were asked to taste the samples and identify the sample with the highest bitterness.

[11] = sample S2: TM1 50 ppm + acetaminophen 90 mM in water vs C, 48 panelists
[12] = sample S3: TM1 25 ppm + acetaminophen 90 mM in water vs C, 45 panelists
[13] = sample S4: TM1 10 ppm + acetaminophen 90 mM in water vs C, 45 panelists
[14] = sample S1: TM1 20 ppm + green tea extract 0.30 wt % in water vs C
[15] = sample S2: TM1 40 ppm + green tea extract 0.30 wt % in water vs C
[16] = panelists choosing comparative sample C as highest bitterness
[17] = panelists choosing test sample as highest bitterness

## CC(=O)c1cc2c(cc1NC(=O)CN1CCN(C(C)=O)CC1)OCCO2 [TM1, N-(7-acetyl-2,3-dihydrobenzo[b][1,4]dioxin-6-yl)-2-(4-acetylpiperazin-1-yl)acetamide]
[1]; sample S1: TM1 100 ppm + acetaminophen 90 mM in water vs C, 31 panelists
  C Chosen: 27
[1]; [11]
  C Chosen: 39
  Test Sample Chosen: 9
[1]; [12]
  C Chosen: 33
  Test Sample Chosen: 12
[1]; [13]
  C Chosen: 31
  Test Sample Chosen: 14
[1]; sample S1: TM1 100 ppm + acetaminophen 90 mM in water vs C (acetaminophen 90 mM), 31 panelists
  Test Sample Chosen: 4
[2]; panelists choosing comparative sample C as highest bitterness, sample S1: TM1 50 ppm + guaifenesin 24 mM in water vs C
  C Chosen: 32
[2]; panelists choosing test sample as highest bitterness, sample S1: TM1 50 ppm + guaifenesin 24 mM in water vs C (guaifenesin 24 mM)
  Test Sample Chosen: 7
[3]; [14]
  C Chosen: 28
  Test Sample Chosen: 11
[3]; [15]
  C Chosen: 26
  Test Sample Chosen: 13
[4]; [16]
  C Chosen: 26
[4]; [17]
  Test Sample Chosen: 13
[5]; [16]
  C Chosen: 29
[5]; [17]
  Test Sample Chosen: 10
[6]; [16]
  C Chosen: 26
[6]; [17]
  Test Sample Chosen: 13
[7]; [16]
  C Chosen: 20
[7]; [17]
  Test Sample Chosen: 10
[8]; [16]
  C Chosen: 24
[8]; [17]
  Test Sample Chosen: 9
[9]; panelists choosing comparative sample C as highest bitterness, sample S1: TM1 10 ppm in grapefruit juice vs C
  C Chosen: 26
[9]; panelists choosing test sample as highest bitterness, sample S1: TM1 10 ppm in grapefruit juice vs C (grapefruit juice)
  Test Sample Chosen: 13
[10]; [16]
  C Chosen: 27
[10]; [17]
  Test Sample Chosen: 6
